The record followed here is ChEMBL document CHEMBL1127644, “Design of orally active, non-peptidic inhibitors of human leukocyte elastase” (J Med Chem, 1994).

The nature of series [1]: Partition coefficient (logP). It counts as physicochemical. Particulars: octanol/water.
In series [2] the test system is Cricetinae gen. sp. In words: Inhibition of Human Leukocyte Elastase (HLE) induced lung hemorrhage in hamster at an oral dose of 20 mg/kg; […]. It counts as functional, organism-based. Also on record: dose 20 mg/kg. The settings on record: Cricetulus griseus.
Series [3] deals with Cricetinae gen. sp. In words: Inhibition of Human Leukocyte Elastase (HLE) induced lung hemorrhage in hamster at an oral dose of 2.5 mg/kg. It is filed as functional, Cricetulus griseus.
In series [4] the test system is Cricetinae gen. sp. In words: Inhibition of Human Leukocyte Elastase (HLE) induced lung hemorrhage in hamster at an oral dose of 20 mg/kg. It counts as functional, Cricetulus griseus.
Series [5] can be described thus: Bioavailability was evaluated in hamster. Particulars: cricetinae, in vivo; read-out: Bioavailabiility. It is filed as ADME, organism-based.
Series [6] in a line: Bioavailability in rat. The settings on record: in vivo, read-out: Bioavailabiility. It counts as ADME, organism-based.
Series [7] in a line: Bioavailability was evaluated in dog. The settings on record: in vivo, read-out: Bioavailabiility. It counts as ADME, organism-based, Canis lupus familiaris.
Series [8] concerns Cricetinae gen. sp. Description: The compound was evaluated for effective dose after oral dosing. It is filed as functional, Cricetulus griseus.

Active and inactive are the calls of the source. The calls are words filed in the database; no cut-off is given here. A value given as a limit tells only on which side of the number the result lay.

Take `CC(C)C(NC(=O)Cn1c(-c2ccccc2)ccc(NC(=O)OCc2ccccc2)c1=O)C(=O)C(F)(F)F` (stereo not given): the logP in series [1] is above 4. Further, the inhibition result in series [2] is “inactive”.
For `COC(=O)Nc1cnc(-c2ccc(F)cc2)n(CC(=O)NC(C(=O)C(F)(F)F)C(C)C)c1=O` (stereo not given), in series [3], the inhibition in vivo at 2.5 mg/kg was 39%.
Turning to `CC(C)C(NC(=O)Cn1c(-c2ccc(F)cc2)ncc(NC(=O)OCc2ccccc2)c1=O)C(=O)C(F)(F)F` (stereo not given), the inhibition in vivo at 20 mg/kg in series [4] was found to be 63%.
`CC(C)C(NC(=O)Cn1c(-c2ccccc2)ccc(NC(=O)OCc2ccc(C(=O)O)cc2)c1=O)C(=O)C(F)(F)F` (stereo not given): the inhibition result in series [2] is “inactive”.
For the compound `CC(C)C(NC(=O)Cn1c(-c2ccc(F)cc2)ncc(N)c1=O)C(=O)C(F)(F)F` (stereo not given), the values for the bioavailability in series [5], in series [6] and in series [7] were 77%, 62% and 88%, respectively. This compound displayed an inhibition in vivo at 2.5 mg/kg in series [3] of 43%. In series [8], this compound registered a median effective dose (ED50) of 7.5 mg/kg.

For orientation: logP means a log measure of how a compound divides between an organic and an aqueous phase. As usually defined, the inhibition in vivo is the percentage by which the read-out fell short of the control. A low value points to a response near the control. Broadly, the ED50 is the midpoint of the dose-response relation. Low readings indicate greater potency, high ones weaker potency.
